Experimental findings from PubChem BioAssay AID248 (DTP/NCI, 2004) are described below.

For this test, the system named is L1210 leukemia ip in BDF1 mice, survival T/C. The experiment in a line: NCI In Vivo Anticancer Drug Screen. Data for tumor model L1210 Leukemia (intraperitoneal) in B6D2F1 (BDF1) mice. The settings on record: endpoint: mean survival time, higher = longer survival. Put shortly:
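Transplanted-tumor mice were given test agent; controls received vehicle only. Survival readings from the two groups were divided (treated over control).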

The mark [1] stands for this setting: dose: 100.0 mg/kg/injection, schedule: Q01DX001 (ip), vehicle: saline.
[2] abbreviates: dose: 100.0 mg/kg/injection, schedule: Q01DX009 (ip), vehicle: saline.
[3] abbreviates: dose: 100.0 mg/kg/injection, schedule: Q04DX003 (ip), vehicle: saline.
[4] abbreviates: dose: 200.0 mg/kg/injection, schedule: Q01DX001 (ip), vehicle: saline.
Setting [5] is: dose: 200.0 mg/kg/injection, schedule: Q01DX009 (ip), vehicle: saline.
Setting [6] is: dose: 200.0 mg/kg/injection, schedule: Q04DX003 (ip), vehicle: saline.
[7] abbreviates: dose: 400.0 mg/kg/injection, schedule: Q01DX001 (ip), vehicle: saline.
Setting [8] is: dose: 400.0 mg/kg/injection, schedule: Q04DX003 (ip), vehicle: saline.

Several values for one entry are separate records, joined by “and”; a condition that tells them apart may be missing. Equal entries are not always repeated. Inconclusive results and toxic doses are left out.

For the compound `CC(C)NCC(=O)c1ccc(O)c(O)c1`, the T/C was 98 % of control (dose: 20.0 mg/kg/injection, schedule: Q01DX Z (ip), vehicle: saline); 96 % of control (dose: 20.0 mg/kg/injection, schedule: Q#A X Z (ip), vehicle: methylcellulose (MC)); 107 % of control (dose: 25.0 mg/kg/injection, schedule: Q01DX Z (ip), vehicle: carboxymethylcellulose (CMC)); 93 % of control (dose: 25.0 mg/kg/injection, schedule: Q03DX Z (ip), vehicle: carboxymethylcellulose (CMC)); 95 % of control (dose: 29.0 mg/kg/injection, schedule: Q03HX024 (ip), vehicle: saline); 106 % of control (dose: 31.0 mg/kg/injection, schedule: Q01DX Z (ip), vehicle: carboxymethylcellulose (CMC)). Also, the T/C was 107 % of control and 89 % of control (dose: 40.0 mg/kg/injection, schedule: Q01DX Z (ip), vehicle: saline); 104 % of control (dose: 43.0 mg/kg/injection, schedule: Q03HX024 (ip), vehicle: saline); 122 % of control (dose: 49.0 mg/kg/injection, schedule: Q01DX Z (ip), vehicle: saline); 96 % of control (dose: 50.0 mg/kg/injection, schedule: Q01DX001 (ip), vehicle: saline); 104 % of control (dose: 50.0 mg/kg/injection, schedule: Q01DX Z (ip), vehicle: carboxymethylcellulose (CMC)); 93 % of control (dose: 50.0 mg/kg/injection, schedule: Q03DX Z (ip), vehicle: carboxymethylcellulose (CMC)). In addition, the T/C is, setting by setting: (dose: 59.0 mg/kg/injection, schedule: Q04DX003 (ip), vehicle: saline) 94 % of control; (dose: 62.0 mg/kg/injection, schedule: Q01DX Z (ip), vehicle: carboxymethylcellulose (CMC)) 119 % of control; (dose: 64.0 mg/kg/injection, schedule: Q03HX024 (ip), vehicle: saline) 105 % of control; (dose: 80.0 mg/kg/injection, schedule: Q01DX Z (ip), vehicle: saline) 97 % of control and 119 % of control; (dose: 88.0 mg/kg/injection, schedule: Q04DX003 (ip), vehicle: saline) 100 % of control; (dose: 96.0 mg/kg/injection, schedule: Q03HX024 (ip), vehicle: saline) 106 % of control. The T/C under setting [1] is 107 % of control; the T/C under setting [2] was 104 % of control; the T/C (dose: 100.0 mg/kg/injection, schedule: Q01DX Z (ip), vehicle: carboxymethylcellulose (CMC)) was 115 % of control; the T/C (dose: 100.0 mg/kg/injection, schedule: Q03DX Z (ip), vehicle: carboxymethylcellulose (CMC)) is 100 % of control; the T/C under setting [3] was 103 % of control; the T/C (dose: 120.0 mg/kg/injection, schedule: Q03DX Z (ip), vehicle: methylcellulose (MC)) is 102 % of control. The T/C reads like this: (dose: 125.0 mg/kg/injection, schedule: Q01DX Z (ip), vehicle: carboxymethylcellulose (CMC)) 105 % of control; (dose: 131.0 mg/kg/injection, schedule: Q04DX003 (ip), vehicle: saline) 98 % of control; (dose: 143.0 mg/kg/injection, schedule: Q01DX009 (ip), vehicle: saline) 114 % of control; (dose: 143.0 mg/kg/injection, schedule: Q03HX024 (ip), vehicle: saline) 101 % of control and 118 % of control; (dose: 160.0 mg/kg/injection, schedule: Q01DX Z (ip), vehicle: saline) 104 % of control and 121 % of control; (dose: 196.0 mg/kg/injection, schedule: Q04DX003 (ip), vehicle: saline) 104 % of control. In addition, the T/C reads like this: under setting [4], 107 % of control; under setting [5], 115 % of control; (dose: 200.0 mg/kg/injection, schedule: Q03DX Z (ip), vehicle: carboxymethylcellulose (CMC)) 100 % of control; under setting [6], 109 % of control; (dose: 210.0 mg/kg/injection, schedule: Q01DX009 (ip), vehicle: saline) 184 % of control; (dose: 210.0 mg/kg/injection, schedule: Q03HX024 (ip), vehicle: saline) 116 % of control. For the same compound, the T/C is 113 % of control (dose: 240.0 mg/kg/injection, schedule: Q03DX Z (ip), vehicle: methylcellulose (MC)); 102 % of control (dose: 288.0 mg/kg/injection, schedule: Q01DX001 (ip), vehicle: saline); 154 % of control (dose: 288.0 mg/kg/injection, schedule: Q04DX003 (ip), vehicle: saline); 104 % of control (dose: 320.0 mg/kg/injection, schedule: Q01DX009 (ip), vehicle: saline); 111 % of control (dose: 320.0 mg/kg/injection, schedule: Q03HX024 (ip), vehicle: saline); 107 % of control under setting [7]. In addition, the T/C was 107 % of control (dose: 400.0 mg/kg/injection, schedule: Q01DX009 (ip), vehicle: saline); 111 % of control (dose: 400.0 mg/kg/injection, schedule: Q01DX Z (ip), vehicle: carboxymethylcellulose (CMC)); 114 % of control (dose: 400.0 mg/kg/injection, schedule: Q03DX Z (ip), vehicle: carboxymethylcellulose (CMC)); 104 % of control under setting [8]; 103 % of control (dose: 430.0 mg/kg/injection, schedule: Q04DX003 (ip), vehicle: saline); 116 % of control (dose: 478.0 mg/kg/injection, schedule: Q01DX009 (ip), vehicle: saline). The T/C (dose: 480.0 mg/kg/injection, schedule: Q03DX Z (ip), vehicle: methylcellulose (MC)) was 102 % of control.
In the case of `COc1cc(O)c2c(c1)C(=O)c1cc3c(c(O)c1C2=O)C(OC1OC(C)C(O)C(O)C1OC)C(OC)C(C)(O)C3=O` (centres undefined), the T/C by setting is: under setting [1], 92 % of control; under setting [4], 103 % of control; under setting [7], 97 % of control.
`CC1(COC(=O)Nc2cccc3ccccc23)CC2C=CC1C2` (centres undefined): the T/C is, setting by setting: (dose: 75.0 mg/kg/injection, schedule: Q01DX001 (ip), vehicle: saline with Tween-80) 96 % of control; (dose: 150.0 mg/kg/injection, schedule: Q01DX001 (ip), vehicle: saline with Tween-80) 91 % of control; (dose: 300.0 mg/kg/injection, schedule: Q01DX001 (ip), vehicle: saline with Tween-80) 88 % of control.
For `COC(=O)C(=Cc1ccccc1)C(=O)OC`, the T/C by setting is: (dose: 100.0 mg/kg/injection, schedule: Q04DX002 (ip), vehicle: Klucel (hydroxypropylcellulose) (HPC)) 95 % of control; (dose: 200.0 mg/kg/injection, schedule: Q04DX002 (ip), vehicle: Klucel (hydroxypropylcellulose) (HPC)) 95 % of control; (dose: 400.0 mg/kg/injection, schedule: Q04DX002 (ip), vehicle: Klucel (hydroxypropylcellulose) (HPC)) 92 % of control.
For `C=C1[C@@H](C)[C@H]2[C@H](Cc3ccccc3)NC(=O)[C@]23OC(=O)/C=C/[C@H](O)CCC[C@@H](C)C/C=C/[C@H]3[C@@H]1O`, the T/C is, setting by setting: (dose: 4.0 mg/kg/injection, schedule: Q04DX002 (ip), vehicle: saline) 112 % of control; (dose: 8.0 mg/kg/injection, schedule: Q04DX002 (ip), vehicle: saline) 98 % of control; (dose: 16.0 mg/kg/injection, schedule: Q04DX002 (ip), vehicle: saline) 109 % of control; (dose: 32.0 mg/kg/injection, schedule: Q04DX002 (ip), vehicle: saline) 91 % of control.
On to `C=[CH][Pb]([CH]=C)([O]C(=O)C(C)C)[O]C(=O)C(C)C`, for which the T/C is 104 % of control (dose: 5.0 mg/kg/injection, schedule: Q04DX003 (ip), vehicle: saline); 106 % of control (dose: 10.0 mg/kg/injection, schedule: Q04DX003 (ip), vehicle: saline); 101 % of control (dose: 20.0 mg/kg/injection, schedule: Q04DX003 (ip), vehicle: saline).
In the case of `Cc1nnc2c([N+](=O)[O-])cccn12`, the T/C was 98 % of control under setting [1] and 103 % of control under setting [4].
As to `O=C1c2cccc3c(Br)ccc(c23)C(=O)N1CCCN1CCOCC1`, the T/C (dose: 25.0 mg/kg/injection, schedule: Q01DX009 (ip), vehicle: Klucel (hydroxypropylcellulose) (HPC)) is 97 % of control; the T/C (dose: 50.0 mg/kg/injection, schedule: Q01DX009 (ip), vehicle: Klucel (hydroxypropylcellulose) (HPC)) is 90 % of control; the T/C (dose: 100.0 mg/kg/injection, schedule: Q01DX009 (ip), vehicle: Klucel (hydroxypropylcellulose) (HPC)) is 102 % of control.
With `ClCc1nc2nc(Cl)c(Cl)nc2[nH]1`, the T/C (dose: 50.0 mg/kg/injection, schedule: Q01DX009 (ip), vehicle: saline) is 88 % of control; the T/C under setting [2] is 102 % of control; the T/C under setting [3] is 101 % of control; the T/C under setting [5] is 102 % of control; the T/C under setting [6] was 101 % of control; the T/C under setting [8] was 98 % of control.
As to `O=C(Nc1cccc(S(=O)(=O)F)c1)c1ccc([N+](=O)[O-])cc1`, the T/C by setting is: under setting [1], 107 % of control; under setting [4], 103 % of control; under setting [7], 90 % of control.
